Results as given in US6277851A, “Bicyclic amino-pyrazinone compounds” (priority 1999, dated 2001).
Counter-ions that a name gives are not always drawn.

Experiments:
[1] = system: dog plasma; assay: Anti-coagulant activity after administration per os to dogs, ACT; type: in vivo; details: p.o.
Experimental: (§1) […] The coagulation times (TT, ACT) are determined from dog plasma samples 10 minutes before and 30 min, 1 hour, 2 hours, 4 hours and 6 hours after administration of the products.

[2] = system: dog plasma; assay: Anti-coagulant activity after administration per os to dogs, TT; type: in vivo; details: p.o.
Experimental: as §1

[3] = biological target: T1, human thrombin (Homo sapiens, UniProt P00734); assay: Inhibition of human thrombin (fibrinogen substrate, fibrin formation); type: biochemical; details: human thrombin 0.7 nM, 10 min preincubation, 20° C., pH 7.4
T1 construct: purchased Sigma
Experimental: (§2) Inhibitors, enzymes and substrates are diluted in the same buffer ([…] phosphate buffer, pH 7.4, containing 0.12 M sodium chloride and 0.05% of bovine serum albumin) and then distributed on a polystyrene microtitre plate in a volume of 50 μl. The fibrin formed by the thrombin or by the paranitroanilide released by the action of the serine protease is measured using a spectrophotometer at 405 nm after from 15 to 30 minutes' reaction at 20° C. Table 2 below gives in nM the concentration of the compounds that inhibits 50% of the enzymatic activity (IC50) of the thrombin compared with the control without product.

[4] = system: human plasma; assay: Anti-coagulant activity, activated cephalin time (ACT) in human plasma; type: biochemical; details: 37° C.
Experimental: (§3) In order to evaluate the anti-coagulant activity of the compounds of the invention, the thrombin time (TT) and activated cephalin time (ACT) were determined from human plasma samples. An ST4 coagulometer (Diagnostica Stago, France) was used. Plasma, deficient in platelets and lyophilised (Stago), is taken up in distilled water. The TT is obtained using the reagent Prest Thrombin and the ACT using the reagent PTT Automate […]. […] Under those conditions, the TT is of the order of 18 seconds and the ACT is of the order of 12 seconds. The activity of an antagonist is evaluated by its capacity to prolong the TT and the ACT relative to the control. The effect of the inhibitors is expressed by the concentration in μM that doubles the coagulation time (Ctt2).

[5] = system: human plasma; assay: Anti-coagulant activity, thrombin time (TT) in human plasma; type: biochemical; details: 37° C.
Experimental: as §3

[6] = biological target: t-PA (Homo sapiens, UniProt P00750); assay: Inhibition of fibrinolysis serine proteases: t-PA; type: biochemical; details: fibrinolysis protease
Experimental: as §2, with “Table 3” for “Table 2”, “the fibrinolysis proteases.” for “the thrombin compared with the control without product.”

[7] = biological target: T2, human plasmin (Homo sapiens, UniProt P00747); assay: Inhibition of fibrinolysis serine proteases: plasmin; type: biochemical; details: human plasmin 2 nM, substrate S 2403 0.50 mM, 20° C., pH 7.4
T2 construct: purchased Stago
Experimental: as §2, with “Table 3” for “Table 2”, “the fibrinolysis proteases.” for “the thrombin compared with the control without product.”

[8] = biological target: uPA (Homo sapiens, UniProt P00749); assay: Inhibition of fibrinolysis serine proteases: uPA; type: biochemical; details: fibrinolysis protease
Experimental: as §2, with “Table 3” for “Table 2”, “the fibrinolysis proteases.” for “the thrombin compared with the control without product.”

T2 sequence (P00747 581-810 limits assumed): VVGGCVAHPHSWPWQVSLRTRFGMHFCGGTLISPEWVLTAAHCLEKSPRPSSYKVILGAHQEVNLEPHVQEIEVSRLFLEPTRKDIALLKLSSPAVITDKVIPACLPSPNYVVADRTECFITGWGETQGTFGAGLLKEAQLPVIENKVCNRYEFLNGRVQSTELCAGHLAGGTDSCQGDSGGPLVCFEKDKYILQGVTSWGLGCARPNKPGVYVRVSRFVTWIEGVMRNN
t-PA, sequence (P00750 36-562): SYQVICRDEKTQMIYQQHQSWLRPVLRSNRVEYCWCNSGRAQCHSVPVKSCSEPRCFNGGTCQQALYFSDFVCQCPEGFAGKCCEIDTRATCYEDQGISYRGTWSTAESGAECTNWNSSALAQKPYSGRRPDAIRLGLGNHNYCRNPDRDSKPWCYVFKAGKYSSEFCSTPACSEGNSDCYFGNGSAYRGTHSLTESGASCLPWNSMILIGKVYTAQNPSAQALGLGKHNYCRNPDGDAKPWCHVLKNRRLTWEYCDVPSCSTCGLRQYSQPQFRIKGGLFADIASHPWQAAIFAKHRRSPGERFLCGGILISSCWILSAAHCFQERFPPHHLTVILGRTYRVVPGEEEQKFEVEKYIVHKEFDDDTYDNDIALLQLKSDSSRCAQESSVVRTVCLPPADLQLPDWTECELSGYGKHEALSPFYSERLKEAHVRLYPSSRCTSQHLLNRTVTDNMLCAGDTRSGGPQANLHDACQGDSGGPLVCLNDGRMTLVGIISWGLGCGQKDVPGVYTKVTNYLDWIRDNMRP

| SMILES | IC50 [3] [nM] | IC50 [6] [nM] | IC50 [7] [nM] | IC50 [8] [nM] | Maximum ACT increase (number of times by which the initial time has been increased) ([1]; 3 mg/kg) [times] | Maximum TT increase (number of times by which the initial time has been increased) ([2]; 3 mg/kg) [times] | ACT Ctt2 (concentration that doubles the coagulation time) [4] [µM] | TT Ctt2 (concentration that doubles the coagulation time) [5] [µM] | Maximum ACT increase (number of times by which the initial time has been increased) ([1]; 10 mg/kg) [times] | Maximum TT increase (number of times by which the initial time has been increased) ([2]; 10 mg/kg) [times] |
| --- | --- | --- | --- | --- | --- | --- | --- | --- | --- | --- |
| CCNC(=O)COc1ccccc1CNC(=O)[C@@H]1CCc2cnc(NCC(c3ccccc3)c3ccccc3)c(=O)n21 [Example 103, (6S)-N-[(2-Ethylcarbamoylmethoxy)-benzyl]-4-oxo-3-(2,2-diphenylethylamino)-4,6,7,8-tetrahydropyrrolo[1,2-a]pyrazine-6-carboxamide hydrochloride] | 14 | – | – | – | – | – | – | – | – | – |
| COc1ccc(C(CNc2ncc3n(c2=O)C(C(=O)NCc2ccc(N)nc2C)CC3)c2ccc(OC)cc2)cc1.Cl.Cl (centres unmarked) [Example 98, N-[(6-Amino-2-methyl-3-pyridyl)-methyl]-3-[2,2-bis-(4-methoxy-phenyl)-ethylamino]-4-oxo-4,6,7,8-tetrahydropyrrolo[1,2-a]pyrazine-6-carboxamide dihydrochloride] | 8 | > 33000 | > 33000 | > 33000 | – | – | 3.54 | 0.33 | 1.4 | 6.1 |
| CCNC(=O)COc1ccccc1CNC(=O)[C@@H]1CCc2cnc(NCCc3ccccc3)c(=O)n21 [Example 71, (6S)-N-[(2-Ethylcarbamoylmethoxy)benzyl]-4-oxo-3-(2-phenethylamino)-4,6,7,8-tetrahydropyrrolo [1,2-a]pyrazine-6-carboxamide] | 13 | > 33000 | > 33000 | > 33000 | – | – | – | – | – | – |
| Cc1cc(CNC(=O)[C@@H]2CCc3cnc(NCCc4ccccn4)c(=O)n32)c(C)nc1N.Cl.Cl.Cl [Example 68, (6S)-N-[(6-Amino-2,5-dimethyl-3-pyridyl)methyl]-3-[2-(2-pyridyl)ethylamino]-4-oxo-4,6,7,8-tetrahydropyrrolo[1,2-a]pyrazine-6-carboxamide trihydrochloride] | 16 | – | – | – | – | – | 2.04 | 0.23 | – | – |
| COc1ccc(CCNc2ncc3n(c2=O)[C@H](C(=O)NCc2ccc(N)nc2C)CC3)cc1OC.Cl.Cl.O [Example 7, (6S)-N-[(6-Amino-2-methyl-3-pyridyl)methyl]-3-[(3,4-dimethoxyphenethyl)amino]-4-oxo-4,6,7,8-tetrahydropyrrolo[1,2-a]pyrazine-6-carboxamide dihydrochloride monohydrate] | 42 | > 33000 | > 33000 | > 33000 | 1.4 | 2.5 | 9.1 | 3 | – | – |
| COc1ccc(C(CNc2ncc3n(c2=O)[C@H](C(=O)NCc2ccc(N)nc2C)CC3)c2ccc(OC)cc2)cc1.Cl.Cl [Example 23, (6S)-N-[(6-Amino-2-methyl-3-pyridyl)methyl]-3-[2,2-bis-(4-methoxy-phenyl)ethylamino]-4-oxo-4,6,7,8-tetrahydropyrrolo[1,2-a]pyrazine-6-carboxamide dihydrochloride] | 3.9 | – | – | – | – | – | 2.75 | 0.24 | – | – |
| Cc1nc(N)ccc1CNC(=O)[C@@H]1CCc2cnc(NCCc3cccnc3)c(=O)n21.Cl.Cl.Cl [Example 16, (6S)-N-[(6-Amino-2-methyl-3-pyridyl)methyl]-4-oxo-3-[2-(3-pyridyl)ethylamino]-4,6,7,8-tetrahydropyrrolo[1,2-a]pyrazine-6-carboxamide trihydrochloride] | 17 | – | – | – | – | – | 1.6 | 0.17 | 2.4 | 13.3 |

More lines, main results first:

| IC50 [3] [nM] | IC50 [6] [nM] | IC50 [7] [nM] | IC50 [8] [nM] | SMILES | Maximum ACT increase (number of times by which the initial time has been increased) ([1]; 3 mg/kg) [times] | Maximum TT increase (number of times by which the initial time has been increased) ([2]; 3 mg/kg) [times] | ACT Ctt2 (concentration that doubles the coagulation time) [4] [µM] | TT Ctt2 (concentration that doubles the coagulation time) [5] [µM] | Maximum ACT increase (number of times by which the initial time has been increased) ([1]; 10 mg/kg) [times] | Maximum TT increase (number of times by which the initial time has been increased) ([2]; 10 mg/kg) [times] |
| --- | --- | --- | --- | --- | --- | --- | --- | --- | --- | --- |
| 7 | > 33000 | > 33000 | > 33000 | Cc1nc(N)ccc1CNC(=O)[C@@H]1CCc2cnc(NCCc3ccccn3)c(=O)n21.Cl.Cl.Cl [Example 15, (6S)-N-[(6-Amino-2-methyl-3-pyridyl)methyl]-4-oxo-3-[2-(2-pyridyl)ethylamino]-4,6,7,8-tetrahydropyrrolo[1,2-a]pyrazine-6-carboxamide trihydrochloride] | 1.6 | 7 | 1.3 | 0.11 | – | – |
| 20 | – | – | – | Cc1nc(N)ccc1CNC(=O)[C@@H]1CCc2cnc(NCC(c3ccccn3)c3ccccn3)c(=O)n21.Cl.Cl.Cl.Cl [Example 22, (6S)-N-[(6-Amino-2-methyl-3-pyridyl)methyl]-3-[2,2-di-(2-pyridyl)ethylamino]-4-oxo-4,6,7,8-tetrahydropyrrolo[1,2-a]pyrazine-6-carboxamide tetrahydrochloride] | – | – | 3.07 | 0.22 | 1.5 | 4.5 |
| 6 | – | – | – | Cc1nc(N)ccc1CNC(=O)[C@@H]1CCc2cnc(NCC(c3ccccc3)c3ccccn3)c(=O)n21 (single isomer, unassigned) [Example 20] | 1.4 | 4.4 | 2.17 | 0.15 | – | – |
| 43 | – | – | – | Cc1nc(N)ccc1CNC(=O)[C@@H]1CCc2cnc(NCC3c4ccccc4CCc4ccccc43)c(=O)n21 [Example 40, (6S)-N-[(6-Amino-2-methyl-3-pyridyl)methyl]-3-[(10,11-dihydro-5H-dibenzo[a,d]cyclohepten-5-yl)methylamino]-4-oxo-4,6,7,8-tetrahydropyrrolo[1,2-a]pyrazine-6-carboxamide dihydrochloride] | – | – | – | – | – | – |
| 34 | > 33000 | > 33000 | > 33000 | Cc1nc(N)ccc1CNC(=O)[C@@H]1CCc2cnc(NCCc3ccccc3)c(=O)n21 [Example 1, (6S)-N-[(6-Amino-2-methyl-3-pyridyl)methyl]-4-oxo-3-(2-phenethylamino)-4,6,7,8-tetrahydropyrrolo[1,2-a]pyrazine-6-carboxamide dihydrochloride] | 1.6 | 3.6 | 9.1 | 3 | – | – |
| 11 | > 33000 | > 33000 | > 33000 | Cc1nc(N)ccc1CNC(=O)[C@@H]1CCc2cnc(NCC(c3ccccc3)c3ccccc3)c(=O)n21.Cl.Cl [Example 6, (6S)-N-[(6-Amino-2-methyl-3-pyridyl)methyl]-3-[(2,2-diphenylethyl)amino]-4-oxo-4,6,7,8-tetrahydropyrrolo[1,2-a]pyrazine-6-carboxamide dihydrochloride] | – | – | 2.5 | 0.4 | 1.7 | 6.2 |
| 29 | – | – | – | Cc1nc(N)ccc1CNC(=O)[C@@H]1CCc2cnc(NCCc3cccc4ccccc34)c(=O)n21 [Example 50, (6S)-N-[(6-Amino-2-methyl-3-pyridyl)methyl]-3-[2-(1-naphthyl)ethylamino]-4-oxo-4,6,7,8-tetrahydropyrrolo[1,2-a]pyrazine-6-carboxamide dihydrochloride] | – | – | – | – | – | – |
